In US20160039825A1 (BIOGEN MA INC., priority 2013, published 2016):
pIC50: −log10 of the molar value.

What follows are molecules tested against T1, Human ATX protein (Homo sapiens, UniProt Q13822) (assay: Autotaxin (ATX) assay, FRET with FS-3 substrate). Settings: upper bound bins (no greater than 100, 250 or 500 nM); FS-3 2 μM, ATX 1.0 μg/mL.
T1 construct: made in house
Format: biochemical
Outline: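 Hydrolysis of the FRET substrate FS-3 (2 μM final) unquenches fluorescein, read at excitation 485 nm and emission 538 nm after 2 h at room temperature, protected from light. Purified human ATX (1.0 μg/mL) and compound were first incubated for 30 min in pH 7.4 Tris/salt buffer containing 1 mg/mL fatty acid-free BSA.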
O=C(O)C1CC2CCC(C1)N2C(=O)c1cc2n(n1)CCCN(C(=O)OCc1cc(Cl)cc(Cl)c1)C2 (stereo not drawn) [Example 97, 8-(5-(((3,5-Dichlorobenzyl)oxy)carbonyl)-5,6,7,8-tetrahydro-4H-pyrazolo[1,5-a][1,4]diazepine-2-carbonyl)-8-azabicyclo[3.2.1]octane-3-carboxylic acid] was tested, and the pIC50 was ≥ 7.00.
For CC1c2cc(C(=O)O)nn2CCCN1C(=O)CCc1cc(Cl)cc(Cl)c1 (stereo not drawn) [Example 420], the pIC50 was ≥ 6.30.
O=C(NC1CCCCC1)c1cc2n(n1)CCCN(C(=O)OCc1cc(Cl)cc(Cl)c1)C2 [Example 17, 3,5-Dichlorobenzyl 2-(cyclohexylcarbamoyl)-7,8-dihydro-4H-pyrazolo[1,5-a][1,4]diazepine-5(6H)-carboxylate] was tested, and the pIC50 was ≥ 7.00.
